Two compounds from patent publication US20130190407A1, “CALCIUM RECEPTOR-ACTIVE MOLECULES” (NPS Pharmaceuticals, Inc., priority 1991, published 2013) can be followed below.

Bounds are passed on as bounds.

Common to all, as to type: cell-based
In assay [1] the target is T1, osteoclast calcium receptor (Rattus norvegicus, UniProt P48442).
T1 sequence (P48442 20-1079): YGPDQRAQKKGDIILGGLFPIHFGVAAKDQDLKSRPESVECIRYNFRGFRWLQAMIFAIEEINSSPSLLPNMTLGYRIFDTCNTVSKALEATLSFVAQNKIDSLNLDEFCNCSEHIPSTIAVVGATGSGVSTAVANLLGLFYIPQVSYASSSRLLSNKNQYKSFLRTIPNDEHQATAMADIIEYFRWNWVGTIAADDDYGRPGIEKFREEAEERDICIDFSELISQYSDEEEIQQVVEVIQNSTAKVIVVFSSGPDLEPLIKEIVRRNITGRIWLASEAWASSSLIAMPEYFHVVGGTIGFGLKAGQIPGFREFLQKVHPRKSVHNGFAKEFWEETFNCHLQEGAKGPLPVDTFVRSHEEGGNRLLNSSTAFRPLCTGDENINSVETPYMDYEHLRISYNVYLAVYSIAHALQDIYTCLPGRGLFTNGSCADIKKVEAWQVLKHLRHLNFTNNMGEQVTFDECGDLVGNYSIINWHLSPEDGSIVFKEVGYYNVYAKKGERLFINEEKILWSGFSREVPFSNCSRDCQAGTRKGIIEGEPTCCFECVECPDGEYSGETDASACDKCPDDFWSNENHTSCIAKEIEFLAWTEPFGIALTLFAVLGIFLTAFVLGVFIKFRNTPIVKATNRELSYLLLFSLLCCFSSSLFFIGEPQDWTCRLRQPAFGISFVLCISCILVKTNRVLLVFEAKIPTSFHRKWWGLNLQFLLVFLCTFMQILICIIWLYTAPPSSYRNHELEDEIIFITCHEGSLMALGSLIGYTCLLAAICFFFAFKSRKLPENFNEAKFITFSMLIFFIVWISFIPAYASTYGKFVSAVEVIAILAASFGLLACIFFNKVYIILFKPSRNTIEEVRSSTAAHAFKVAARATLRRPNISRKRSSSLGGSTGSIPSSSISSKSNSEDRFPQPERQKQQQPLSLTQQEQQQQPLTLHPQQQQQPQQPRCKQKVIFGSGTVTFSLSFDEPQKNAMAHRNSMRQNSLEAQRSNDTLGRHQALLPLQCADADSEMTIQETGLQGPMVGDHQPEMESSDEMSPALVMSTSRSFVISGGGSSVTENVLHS
Description: [Ca2+]i (indo-1) in single rat osteoclasts. The conditions noted are these: Table 6; rat osteoclasts, indo-1.

The target of assay [2] is T2, bovine parathyroid cell calcium receptor (Bos taurus, UniProt P35384).
T2 construct: isolation of a single clone (BoPCaR 1) with a cDNA insert of 5.3 kb; expressed in transfected cells
T2 sequence (P35384 20-1085): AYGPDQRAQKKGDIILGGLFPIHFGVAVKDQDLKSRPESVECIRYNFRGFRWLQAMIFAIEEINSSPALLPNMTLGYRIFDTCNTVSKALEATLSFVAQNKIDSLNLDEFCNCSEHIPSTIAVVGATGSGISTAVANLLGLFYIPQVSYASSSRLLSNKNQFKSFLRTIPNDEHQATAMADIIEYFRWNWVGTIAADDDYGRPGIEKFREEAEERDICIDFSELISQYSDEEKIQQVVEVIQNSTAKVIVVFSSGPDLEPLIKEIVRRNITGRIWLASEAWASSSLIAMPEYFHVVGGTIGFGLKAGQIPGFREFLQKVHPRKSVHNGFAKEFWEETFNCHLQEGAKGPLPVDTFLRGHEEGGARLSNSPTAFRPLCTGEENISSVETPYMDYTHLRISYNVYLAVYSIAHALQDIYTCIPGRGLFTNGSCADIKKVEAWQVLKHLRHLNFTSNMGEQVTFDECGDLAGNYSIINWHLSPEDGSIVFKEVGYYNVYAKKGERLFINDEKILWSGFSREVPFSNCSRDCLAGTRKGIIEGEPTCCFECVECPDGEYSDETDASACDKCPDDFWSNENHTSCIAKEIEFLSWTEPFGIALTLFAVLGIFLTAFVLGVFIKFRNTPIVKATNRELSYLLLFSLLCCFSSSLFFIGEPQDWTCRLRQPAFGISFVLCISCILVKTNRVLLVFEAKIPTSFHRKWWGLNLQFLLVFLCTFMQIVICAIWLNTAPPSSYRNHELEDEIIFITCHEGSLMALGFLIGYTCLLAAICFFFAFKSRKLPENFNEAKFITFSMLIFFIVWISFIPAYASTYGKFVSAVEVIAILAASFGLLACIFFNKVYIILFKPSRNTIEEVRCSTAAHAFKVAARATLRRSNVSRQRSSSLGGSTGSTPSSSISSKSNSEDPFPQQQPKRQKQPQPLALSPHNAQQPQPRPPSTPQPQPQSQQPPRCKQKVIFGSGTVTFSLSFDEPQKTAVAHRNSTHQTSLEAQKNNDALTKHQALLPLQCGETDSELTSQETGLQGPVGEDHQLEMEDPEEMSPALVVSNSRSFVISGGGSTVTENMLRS
The assay can be described thus: Cl- current in Xenopus oocytes injected with BoPCaR 1. The settings on record: 1 mM extracellular Ca2+. The protocol: Several pharmacological and biochemical criteria were used to identify this clone as encoding a bona fide bovine parathyroid Ca^2+ receptor. […] These responses increased markedly over a period of one to four days after injection of the eggs with cRNA prepared from the BoPCaR 1 cDNA. Furthermore, the ranges of the concentrations of the two cations eliciting this response were very similar to those shown previously to act on bovine parathyroid cells in vitro.
Xenopus oocytes were injected with BoPCaR 1, the 5.3 Kb cDNA encoding a bovine parathyroid cell calcium receptor as described in Example 25. After two to three days, Cl^− currents were examined in the oocytes using a two-electrode voltage clamp.
Xenopus oocytes were injected with BoPCaR 1 as described in Example 25. After two to three days, Cl^− currents were examined in the oocytes using two electrode voltage clamp.

Assay [3] addresses T3, human parathyroid cell calcium receptor (Homo sapiens, UniProt P41180, E1011Q/Q926R).
T3 construct: appear to be full-length clones corresponding to the 5 Kb mRNA; expressed in transfected cells; host or cells: Xenopus laevis oocytes injected with pHuPCaR 5.2
T3 sequence (P41180 20-1088 isoform P41180-2 Q936R/E1021Q): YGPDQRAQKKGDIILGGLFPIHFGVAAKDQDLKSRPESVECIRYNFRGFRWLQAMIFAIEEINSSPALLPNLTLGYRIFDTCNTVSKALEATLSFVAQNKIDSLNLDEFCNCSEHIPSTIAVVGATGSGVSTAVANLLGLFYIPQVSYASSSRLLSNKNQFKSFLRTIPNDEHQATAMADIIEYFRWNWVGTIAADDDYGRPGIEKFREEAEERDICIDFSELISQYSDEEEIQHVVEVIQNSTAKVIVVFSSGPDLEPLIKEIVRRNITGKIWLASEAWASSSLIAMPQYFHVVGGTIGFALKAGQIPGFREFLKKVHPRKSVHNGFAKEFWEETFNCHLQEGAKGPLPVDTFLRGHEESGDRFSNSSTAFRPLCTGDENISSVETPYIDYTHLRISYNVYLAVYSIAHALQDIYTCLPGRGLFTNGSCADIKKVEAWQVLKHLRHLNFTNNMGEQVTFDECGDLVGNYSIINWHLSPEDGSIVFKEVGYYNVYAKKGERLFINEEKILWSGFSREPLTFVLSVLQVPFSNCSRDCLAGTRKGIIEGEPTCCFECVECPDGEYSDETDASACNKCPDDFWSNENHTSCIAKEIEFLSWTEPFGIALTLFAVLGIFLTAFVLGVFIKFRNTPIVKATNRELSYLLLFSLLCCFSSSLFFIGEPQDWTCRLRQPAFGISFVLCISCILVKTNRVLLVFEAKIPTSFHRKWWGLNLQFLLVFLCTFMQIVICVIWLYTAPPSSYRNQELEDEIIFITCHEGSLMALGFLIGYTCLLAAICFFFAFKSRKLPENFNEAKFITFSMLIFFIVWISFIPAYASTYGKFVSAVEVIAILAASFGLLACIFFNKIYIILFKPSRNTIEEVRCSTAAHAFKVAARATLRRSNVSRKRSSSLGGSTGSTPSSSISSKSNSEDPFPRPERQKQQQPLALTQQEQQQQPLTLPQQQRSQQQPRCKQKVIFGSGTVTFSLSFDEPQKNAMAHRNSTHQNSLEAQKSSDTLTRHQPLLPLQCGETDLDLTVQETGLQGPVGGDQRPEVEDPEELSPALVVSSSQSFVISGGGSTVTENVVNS
Description: Cl- current in Xenopus oocytes injected with pHuPCaR 5.2. The settings on record: 3 to 30 μM; 0.3 mM extracellular Ca2+. The protocol:
Xenopus oocytes were injected with pHuPCaR 5.2, the 5.2 Kb cDNA encoding a parathyroid cell calcium receptor derived from a human parathyroid cell adenoma. (See Example 27.) After two to three days, Cl^− currents were measured in the oocytes using a two-electrode voltage clamp.

Assay [4] has as its system Bovine parathyroid cells. The assay can be described thus: Inositol phosphate formation in bovine parathyroid cells. The protocol: After 30 seconds, the reaction was terminated by the addition of CHCl3:MeOH:HCl and IP1 (circles) and IP3 (triangles) separated by anion exchange chromatography. Each point is the mean of 2 experiments, each performed in triplicate.
This section describes procedures measuring inositol phosphate formation. Membrane phospholipids were labeled by incubating parathyroid cells with 4 μCi/ml ^3H-myo-inositol for 20-24 hours. Cells were then washed and resuspended in PCB containing 0.5 mM CaCl2 and 0.1% BSA. Incubations were performed in microfuge tubes in the absence or presence of various concentrations of organic polycation for different times. Reactions were terminated by the addition of 1 ml chloroform-methanol-12 N HCl (200:100:1; v/v/v). Aqueous phytic acid hydrolysate (200 μl; 25 μg phosphate/tube). The tubes were centrifuged and 600 μl of the aqueous phase was diluted into 10 ml water.
Inositol phosphates were separated by ion-exchange chromatography using AG1-X8 in either the chloride- or formate-form. When only IP3 levels were to be determined, the chloride-form was used, whereas the formate form was used to resolve the major inositol phosphates (IP3, IP2, and IP1). […] The last eluate was diluted and counted. […] The eluted samples from the formate columns were rotary evaporated, the residues brought up in cocktail, and counted.

The test system of assay [5] is Bovine parathyroid cells. On the procedure: This section describes measuring cyclic AMP levels. Cells were incubated as above for PTH secretion studies and at the end of the incubation, a 0.15-ml sample was taken and transferred to 0.85 ml of hot (70° C.) water and heated at this temperature for 5-10 minutes. The tubes were subsequently frozen and thawed several times and the cellular debris sedimented by centrifugation. Portions of the supernatant were acetylated and cyclic AMP concentrations determined by radioimmunoassay.
Bovine parathyroid cells were cultured for 16 hours with or without 100 ng/ml pertussis toxin. […] Each value is the mean±SEM of three experiments.

Assay [6] relates to Bovine parathyroid cells. Description: PTH secretion from bovine parathyroid cells. The settings on record: concentrations that mobilize intracellular Ca2+. The protocol: PTH secretion was measured by first suspending cells in PCB containing 0.5 mM CaCl2 and 0.1% BSA.
Counting of samples and data reduction were performed on a Packard Cobra 5005 gamma counter.

As for `NCCCNCCCCNCCCNCCCNCCCNC(=O)Cc1c[nH]c2ccccc12` [NPS 019], the EC50 in assay [1] is over 300 µM. Moreover, the Cl- current entry is “oscillatory increases in the Cl^− current” in assay [2] and “evoked increases in the Cl^− current” in assay [3].

As for protamine, in the assay on Bovine parathyroid cells [4], the “formation of IP3” value is recorded as “rapid (within 30 seconds) increase in the formation of IP3”. Also, the “cyclic AMP (% of control), control” value in the assay with Bovine parathyroid cells [5] is recorded as 20 ± 4 % of control. Besides, the PTH secretion result in the assay on Bovine parathyroid cells [6] is reported as “inhibited PTH secretion to the same extent as extracellular Ca^2+”.
